Test results as given in patent US12102633B2, “Spirolactone compounds” (Quixgen, Inc., priority 2017, dated 2024).

Tests used:
human ACC1 = target: T1, human ACC1 (Homo sapiens, UniProt Q13085); assay: Human ACC enzymatic activity assay (ACC1); format: biochemical; details: purified human ACC1; read-out: EA-CoA hACC 1 IC50
T1 construct: purchased BPS Bioscience
Procedure: (§1) Human ACC enzymatic activity assays were performed by using purified human ACC1 and ACC2 proteins (BPS Bioscience). ACC1 and ACC2 proteins were diluted in 24.5 μL reaction buffer (50 mM HEPES pH 7.5, 10 mM MgCl2, 2.0 mM DTT, 4.0 mM ATP, 15 mM ^13C-NaHCO3, 0.75 mg/mL BSA, 0.5 mM sodium citrate), and final concentrations of ACC1 and ACC2 were 0.4 μg/mL and 0.48 μg/mL. For each reaction, 0.5 μL of serial diluted compounds were prepared in DMSO in duplicate or triplicate and mixed with the above 24.5 μL reaction mixtures with ACC proteins at 37° C. for 10 min. Meanwhile, 25 μL of reaction buffer plus acetyl-CoA (final concentration: 5 μM) was prepared freshly and added to the above 25 μL mixture to initiate the reaction. After incubation at 37° C. for 1-2 hours, 100 μl ice-cold 10% TCA with malonyl-^13C3-CoA (final concentration: 40 nM, Sigma-Aldrich) was added to terminate the reaction. For LC-MS/MS analysis, 300 μL quenching buffer (acetonitrile:methanol=1:1, 20 μM carbutamide as internal standard) was added to each tube and mixed well. Samples were then centrifuged at 14,000 rpm for 10 min (Eppendorf) and supernatants were loaded onto LC-MS/MS for quantitation of […] (Gao et al., Journal of chromatography B, Analytical technologies in the biomedical and life sciences 853, 303-313 (2007)).
(§2) Shimadzu LC system was used for sample analysis consisting of system controller (Shimadzu CBM-20A), autosampler (Shimadzu SIL-20A), pump A and B (Shimadzu LC-20AD), column oven (Shimadzu CTO-20A), and analytical column (Phenomenex Gemini 5u C18 11A, 100×2 mm). LC was running at 200 μL/min in the binary gradient mode with mobile phase A (5 mM Ammonium Acetate and 5 mM DMBA in water (1,3-Dimethylbutylamine)) and B (methanol). The samples were analyzed on an AB Sciex QTrap4000 LC-MS/MS triple quadrupole mass spectrometer (Applied Biosystems). Malonyl-CoA and malonyl-13C-CoA were monitored in positive ion mode following MRM transitions at 854.2/347.1 and 855.1/246.1, respectively. The product and internal standard were coeluted to the mass spectrometer in 3 s with 50% H2O, 25% MeCN, 25% acetone, and 5 mM ammonium acetate. Ion chromatograms were integrated using the Analyst 1.5.2 software. Peak area ratios were compared against a standard curve and final cellular concentration of malonyl-CoA or production rate of malonyl-13C-CoA was calculated as pmoles/mg protein per minute.

human ACC2 = target: T2, human ACC2 (Homo sapiens, UniProt O00763); assay: Human ACC enzymatic activity assay (ACC2); format: biochemical; details: purified human ACC2; read-out: EA-CoA hACC 2 IC50
T2 construct: purchased BPS Bioscience
T2 sequence (O00763 whole entry): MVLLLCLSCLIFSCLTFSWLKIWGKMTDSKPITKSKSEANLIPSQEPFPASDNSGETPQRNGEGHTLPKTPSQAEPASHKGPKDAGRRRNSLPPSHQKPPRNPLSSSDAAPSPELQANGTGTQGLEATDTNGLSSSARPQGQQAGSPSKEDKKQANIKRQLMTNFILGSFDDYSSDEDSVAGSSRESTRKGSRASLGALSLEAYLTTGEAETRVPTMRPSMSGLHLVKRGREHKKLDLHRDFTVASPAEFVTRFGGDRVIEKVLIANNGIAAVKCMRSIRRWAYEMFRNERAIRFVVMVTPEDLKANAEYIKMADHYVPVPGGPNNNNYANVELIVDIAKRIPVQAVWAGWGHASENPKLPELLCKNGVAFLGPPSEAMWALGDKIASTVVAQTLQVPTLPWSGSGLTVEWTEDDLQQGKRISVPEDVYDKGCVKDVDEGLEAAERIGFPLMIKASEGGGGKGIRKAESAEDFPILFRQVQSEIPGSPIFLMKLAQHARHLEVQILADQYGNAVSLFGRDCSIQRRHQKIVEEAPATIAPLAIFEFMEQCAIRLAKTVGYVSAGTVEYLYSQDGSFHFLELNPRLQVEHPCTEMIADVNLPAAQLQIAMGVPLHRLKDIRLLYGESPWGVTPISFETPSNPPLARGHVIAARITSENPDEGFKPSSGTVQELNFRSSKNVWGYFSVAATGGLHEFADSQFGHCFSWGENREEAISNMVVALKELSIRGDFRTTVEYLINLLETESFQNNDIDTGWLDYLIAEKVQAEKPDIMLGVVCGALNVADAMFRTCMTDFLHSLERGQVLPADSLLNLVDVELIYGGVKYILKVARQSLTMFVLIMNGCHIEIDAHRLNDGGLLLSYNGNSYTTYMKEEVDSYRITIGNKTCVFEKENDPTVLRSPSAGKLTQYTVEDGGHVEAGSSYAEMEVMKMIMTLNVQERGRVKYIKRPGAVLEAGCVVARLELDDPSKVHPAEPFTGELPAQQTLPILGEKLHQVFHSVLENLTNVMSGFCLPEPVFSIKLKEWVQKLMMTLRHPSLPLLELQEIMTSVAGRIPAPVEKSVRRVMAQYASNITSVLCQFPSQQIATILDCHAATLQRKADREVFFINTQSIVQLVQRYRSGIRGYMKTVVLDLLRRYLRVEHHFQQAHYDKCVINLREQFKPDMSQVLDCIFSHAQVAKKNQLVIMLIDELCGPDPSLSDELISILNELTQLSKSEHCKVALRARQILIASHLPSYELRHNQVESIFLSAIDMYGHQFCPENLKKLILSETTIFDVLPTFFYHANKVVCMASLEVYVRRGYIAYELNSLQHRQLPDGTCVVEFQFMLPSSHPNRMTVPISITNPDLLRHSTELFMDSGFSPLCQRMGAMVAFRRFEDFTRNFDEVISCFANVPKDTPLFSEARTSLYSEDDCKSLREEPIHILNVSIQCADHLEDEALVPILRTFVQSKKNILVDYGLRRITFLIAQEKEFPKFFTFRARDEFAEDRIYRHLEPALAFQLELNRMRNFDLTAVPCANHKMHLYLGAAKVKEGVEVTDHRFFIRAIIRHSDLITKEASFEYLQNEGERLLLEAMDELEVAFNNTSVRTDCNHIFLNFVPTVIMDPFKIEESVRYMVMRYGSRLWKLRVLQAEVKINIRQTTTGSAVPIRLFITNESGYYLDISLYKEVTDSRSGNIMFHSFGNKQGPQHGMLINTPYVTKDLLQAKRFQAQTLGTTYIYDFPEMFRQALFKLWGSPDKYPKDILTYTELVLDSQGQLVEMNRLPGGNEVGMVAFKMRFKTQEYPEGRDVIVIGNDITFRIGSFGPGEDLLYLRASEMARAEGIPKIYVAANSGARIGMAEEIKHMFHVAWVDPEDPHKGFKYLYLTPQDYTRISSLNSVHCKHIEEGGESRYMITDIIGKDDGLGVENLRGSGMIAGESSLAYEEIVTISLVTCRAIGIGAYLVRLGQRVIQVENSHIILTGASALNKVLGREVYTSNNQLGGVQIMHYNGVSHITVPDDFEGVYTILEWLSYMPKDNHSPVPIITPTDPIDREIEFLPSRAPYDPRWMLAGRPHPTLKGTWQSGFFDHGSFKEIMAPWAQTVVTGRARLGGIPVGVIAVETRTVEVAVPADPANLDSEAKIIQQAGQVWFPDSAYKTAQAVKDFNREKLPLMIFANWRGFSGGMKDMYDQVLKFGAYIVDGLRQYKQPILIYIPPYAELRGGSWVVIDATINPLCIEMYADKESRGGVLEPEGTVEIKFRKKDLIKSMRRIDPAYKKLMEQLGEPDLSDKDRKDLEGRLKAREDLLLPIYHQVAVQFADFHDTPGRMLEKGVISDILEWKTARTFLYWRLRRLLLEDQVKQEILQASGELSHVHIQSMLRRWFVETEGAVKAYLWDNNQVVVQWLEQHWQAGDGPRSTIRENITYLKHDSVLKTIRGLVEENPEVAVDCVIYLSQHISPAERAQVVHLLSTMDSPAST
Procedure: as §1, §2

Human sebocytes = assay: Cellular levels of malonyl-CoA in human sebocytes; format: cell-based; details: 0.5 h, 30 min incubation, read-out: Malonyl-CoA in Sebo IC50
Procedure: as §2
Human sebocytes (Celprogen) were grown in growth media (DMEM with 4.5 g/L glucose, 0.584 g/L L-glutamine (Sigma), 100 units/mL of penicillin and 100 μg/mL of streptomycin (Gibco), 10% fetal bovine serum (Gibco)) at 37° C. in a humidified water jacketed incubator (Forma Scientific) supplemented with 5% CO2 till 100% confluency. Cells grown in 152 cm^2 cell culture dish (Corning) were trypsinized with 0.25% trypsin-EDTA (Gibco), centrifuged at 800 rpm for 10 min (Eppendorf) and resuspended in 4 mL growth media. To 1 μL serial diluted compounds in DMSO, 99 μL cells (around 0.5 million cells suspended in growth media) were added and mixed well followed by incubation in cell culture incubator for 30 min. Cells were then centrifuged at 800 rpm for 10 min and 70 μL 10% trichloroacetic acid was added to each well to lyse the cells and precipitate proteins. Cellular levels of malonyl-CoA were quantitated by LC-MS/MS.

[1] = tested on: T3, Mouse ACC (ACC protein purified from liver); assay: Mouse ACC enzymatic activity assay; format: biochemical; details: read-out: EA-CoA mACC IC50
T3 construct: ACC protein was purified by taking advantage of the biotinylation in the carboxylase domain
Procedure: ACC protein was purified by taking advantage of the biotinylation in the carboxylase domain. Male C57BL/6J mice (Jackson Laboratory) at 8-12 weeks of age were euthanized by using CO2 inhalation method and liver was immediately frozen on dry ice. To 100 mg liver was added 1 mL ice-cold tissue lysis buffer (20 mM Tris-HCl pH 7.5, 150 mM NaCl, 1 mM Na2EDTA, 1 mM EGTA, 1% Triton, 2.5 mM sodium pyrophosphate, 1 mM 3-glycerophosphate, 1 mM Na3VO4, 1 μg/mL leupeptin, 1 tablet of protease inhibitor cocktail (Roche) per 10 mL lysis buffer) followed by homogenization on ice with Power Gen 125 homogenizer (Fisher Scientific). After 30 min incubation on ice, tissue lysate was passed through a 10 mL syringe with 18½ G needle for 10 times to shear DNA. The lysate was then subject to 17.5%-35% saturated ammonium sulfate precipitation by adding 880 mg ammonium sulfate powder (Sigma) to 10 mL liver lysate in 10 min with stirring on ice. Sample was centrifuged at 14,000 rpm (Eppendorf) at 4° C. for 10 min and supernatant was saved for further precipitation by adding 880 mg ammonium sulfate powder to 10 ml supernatant in 10 min with stirring on ice. Sample was centrifuged at 14,000 rpm at 4° C. for 10 min. Supernatant was discarded and pellet was dissolved in 10 mL sample buffer (100 mM Tris-HCl, pH 7.5, 1 mM EDTA, 0.1 mM DTT, 0.5 M NaCl, and 5% glycerol). The sample was then added with 1 mL of Strep Mag beads slurry (Genscript) and rotated at 4° C. for 1 hour. Supernatant was discarded and beads were washed with sample buffer for 3 times. Protein was then eluted by adding 10 mL of 2 mM biotin (Promega) prepared in sample buffer. The eluate was then dialyzed at 4° C. for 1 hour by using Slide-A-Lyzer™ Dialysis Cassettes 10K MWCO (Thermo Fisher Scientific) against 3 changes of 200 mL dialysis buffer (50 mM HEPES, pH 7.5, 0.1 mM DTT, 1.0 mM EDTA, and 10% glycerol). Total protein concentration was then quantitated by using BCA protein assay kit (Pierce).
For ACC enzymatic activity assay, 1 μL serial diluted compounds prepared in DMSO in duplicate were mixed with 8 μL dialyzed sample at 37° C. for 10 min. Ninety one L of reaction buffer (50 mM HEPES pH 7.5, 10 mM MgCl2, 2.0 mM DTT, 0.5 mM acetyl-CoA, 4.0 mM ATP, 15 mM ^13C-NaHCO3, 0.75 mg/mL BSA, 0.5 mM sodium citrate) was added to the tube and mixed thoroughly. After incubation at 37° C. for 1 hour, 300 μl ice-cold quenching buffer (acetonitrile:methanol=1:1, 20 μM carbutamide as internal standard) was added to each tube and mixed well to terminate the reaction. Samples were centrifuged at 14,000 rpm for 10 min (Eppendorf) and supernatant was loaded onto LC-MS/MS for quantitation of malonyl-^13C-CoA (Gao et al., Journal of chromatography B, Analytical technologies in the biomedical and life sciences 853, 303-313 (2007)).
as §2

IC50 (Human sebocytes) [nM] | Structure (SMILES) | further results
– | COc1cc(C(=O)N2CCC3(CC2)Cc2ccc(-c4cncc(C(=O)O)c4)cc2C(=O)O3)cc2c1c(C)cn2C1CC1 [Example 22, 5-(1′-(1-cyclopropyl-4-methoxy-3-methyl-1H-indole-6-carbonyl)-1-oxospiro[isochroman-3,4′-piperidin]-7-yl)nicotinic acid] | IC50 (human ACC1): 23.9 nM; IC50 (human ACC2): 11.1 nM
142 | COc1ccc2ncc(C(=O)N3CCC4(CC3)Cc3ccc(C(C)C)cc3C(=O)O4)cc2c1 [Example 11, 7-isopropyl-1′-(6-methoxyquinoline-3-carbonyl)spiro [isochroman-3,4′-piperidin]-1-one] | –
– | COC(=O)c1cncc(-c2ccc3c(c2)C(=O)OC2(CCN(C(=O)c4cc(OC)c5cccc(C6CC6)c5n4)CC2)C3)c1 [Example 19, methyl 5-(1′-(8-cyclopropyl-4-methoxyquinoline-2-carbonyl)-1-oxospiro[isochroman-3,4′-piperidin]-7-yl)nicotinate] | IC50 (human ACC1): 1120 nM; IC50 (human ACC2): 740 nM
714 | CC(C)c1ccc2c(c1)C(=O)OC1(CCN(C(=O)c3cc4ncccc4[nH]3)CC1)C2 [Example 9, 7-isopropyl-1′-(1H-pyrrolo[3,2-b]pyridine-2-carbonyl)-spiro[isochroman-3,4′-piperidin]-1-one] | –
442 | CC(C)c1ccc2c(c1)C(=O)OC1(CCN(C(=O)c3ccc4[nH]ncc4c3)CC1)C2 [Example 8, 1′-(1H-indazole-5-carbonyl)-7-isopropylspiro[isochroman-3,4′-piperidin]-1-one] | –
676 | CC(C)c1ccc2c(c1)C(=O)OC1(CCN(C(=O)c3ccc4cn[nH]c4c3)CC1)C2 [Example 10, 1′-(1H-indazole-6-carbonyl)-7-isopropylspiro-[isochroman-3,4′-piperidin]-1-one] | –
– | COc1cc(C(=O)N2CCC3(CC2)Cc2ccc(Nc4ccnn4C)cc2C(=O)O3)cc2c(OC)cccc12 [Example 5, 1′-(4,8-dimethoxy-2-naphthoyl)-7-((1-methyl-1H-pyrazol-5-yl)amino)spiro[isochroman-3,4′-piperidin]-1-one] | IC50 [1]: 0.37 nM
6150 | Cc1nc2ccc(C(=O)N3CCC4(CC3)Cc3ccc(C(C)C)cc3C(=O)O4)cc2[nH]1 [Example 7, 7-isopropyl-1′-(2-methyl-1H-benzo[d]imidazole-6-carbonyl)spiro[isochroman-3,4′-piperidin]-1-one] | –
– | COC(=O)c1cncc(-c2ccc3c(c2)C(=O)OC2(CCN(C(=O)c4cc(OC)c5c(C)cn(C6CC6)c5c4)CC2)C3)c1 [Example 21, methyl 5-(1′-(1-cyclopropyl-4-methoxy-3-methyl-1H-indole-6-carbonyl)-1-oxospiro[isochroman-3,4′-piperidin]-7-yl)nicotinate] | IC50 (human ACC1): 296 nM; IC50 (human ACC2): 221 nM
2440 | CC(C)c1ccc2c(c1)C(=O)OC1(CCN(C(=O)c3ccc4[nH]c(=O)n(C)c4c3)CC1)C2 [Example 13, 7-isopropyl-1′-(3-methyl-2-oxo-2,3-dihydro-1H-benzo [d]imidazole-5-carbonyl)spiro[isochroman-3,4′-piperidin]-1-one] | –
3490 | CCc1nc2ccc(C(=O)N3CCC4(CC3)Cc3ccc(C(C)C)cc3C(=O)O4)cc2[nH]1 [Example 12, 1′-(2-ethyl-1H-benzo[d]imidazole-6-carbonyl)-7-isopropylspiro[isochroman-3,4′-piperidin]-1-one] | –
